Like-named read-outs stand apart in the source and are kept apart here.
What was measured:
[1] = biological target: T1, full-length SHP2 (His6-tagged SHP2(2-527)) (Homo sapiens, UniProt Q06124); experiment: SHP2 Enzymatic Assay (fluorescence intensity kinetic assay, DiFMUP hydrolysis); format: biochemical
T1 construct: His6-tagged SHP2(2-527); His6; made in house; host or cells: E. coli
How it was run: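 1 nM His6-SHP2(2-527), activated by 1 μM bis-phosphopeptide, hydrolysed 50 μM DiFMUP in 25 mM HEPES pH 7.4 with 1 mM DTT, 50 mM KCl and 2% DMSO. DiFMU fluorescence (Ex 355/Em 460 nm) was read kinetically for 15 min at ambient temperature.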

[2] = system: ERK1/2 (Thr202/Tyr204) phosphorylation in KYSE520 cells; experiment: Cellular Phospho-p44/42 MAPK (Erk 1/2) (Thr202/Tyr204) Assay (In-Cell Western); format: cell-based; details: Homo sapiens, KYSE-520, 1 h, read-out: Biological Example 2 IC50 (nM)
Procedure: KYSE520 cells were obtained from DSMZ and grown in RPMI supplemented with 10% fetal bovine serum, pennicillin/streptomycin, 2 mM L-alanyl-L-glutamine dipeptide in 0.85% NaCl (Glutamax™), non-essential amino acids, and sodium pyruvate. Cells were plated in 96-well plates at 30,000 cells/well and allowed to attach overnight at 37° C./5% CO2. Cells were treated with compounds prepared as a 10-point, 1:3 dilution series (range: 20 μM-1 nM), with a final DMSO concentration of 0.5%. After 1 hour incubation, cells were fixed in 3.7% formaldehyde in Dulbecco's phosphate-buffered saline (“dPBS”) at room temperature for 20 minutes. Cells were then washed with dPBS and permeabilized in 100% MeOH at room temperature for 10 minutes. Following permeabilization, cells were washed in dPBS and incubated in LI-COR Blocking Buffer (LI-COR Biosciences, Cat #927-40000) for 1 hour or longer. Plates were then incubated with an antibody specific for the MEK-dependent ERK1/2 phosphorylation sites, threonine 202 and tyrosine 204 (Cell Signaling Technologies; Cat #9101), downstream of SHP2 in the MAP kinase signal transduction pathway, as well as GAPDH (Millipore; Cat #MAB374). pErk1/2 (Thr202/Tyr204) antibody was diluted in LI-COR blocking buffer containing 0.05% polysorbate-20 (Tween-20) at 1:250; GAPDH was diluted at 1:2,500. The plates were incubated overnight at 4° C. After washing with PBS/0.05% Tween-20, the cells were incubated with fluorescently-labeled secondary antibodies (Anti-rabbit-Alexa Flour680, Invitrogen Cat #A21109; Anti-mouse-IRDye800CW, Li-cor Bioscieces Cat #926-32210, both at 1:1000 dilution) for 1 hour. Cells were then washed, as above, and analyzed for fluorescence at both 680 nm and 800 nm wavelengths using the Aerius Infrared Imaging System (LI-COR Biosciences, Model 9250). Phosphorylated Erk1/2 (Thr202/Tyr204) signal was normalized to GAPDH signal for each well. IC50 values were calculated from the normalized values using a 4-parameter fit in BioAssay software. […] The reported IC50 in Table 2 may be from a single assay or the mean of multiple assays.

T1 sequence (Q06124 2-527): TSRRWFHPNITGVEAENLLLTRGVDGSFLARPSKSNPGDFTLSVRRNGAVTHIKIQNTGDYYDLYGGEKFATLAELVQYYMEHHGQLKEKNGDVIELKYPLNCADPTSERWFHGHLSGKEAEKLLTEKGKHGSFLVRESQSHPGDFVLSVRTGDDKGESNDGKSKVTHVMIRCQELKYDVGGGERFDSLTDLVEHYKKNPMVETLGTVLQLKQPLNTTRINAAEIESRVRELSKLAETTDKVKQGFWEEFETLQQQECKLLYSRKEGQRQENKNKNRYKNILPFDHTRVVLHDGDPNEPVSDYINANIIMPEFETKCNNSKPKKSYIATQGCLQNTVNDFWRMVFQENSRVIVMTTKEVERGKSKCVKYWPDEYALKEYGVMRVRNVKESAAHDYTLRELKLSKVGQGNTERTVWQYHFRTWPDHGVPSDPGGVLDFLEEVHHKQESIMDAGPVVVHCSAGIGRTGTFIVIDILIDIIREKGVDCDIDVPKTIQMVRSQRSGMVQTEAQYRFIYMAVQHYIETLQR

Structure (SMILES) | IC50 [1] [nM] | IC50 [2] [nM] | IC50 ([1]; full-length SHP2 with 1 μM activating peptide, 50 μM DiFMUP, single assay or mean of multiple assays, read-out: Biological Example 1 IC50) [nM]
Nc1nccc(Sc2ccc3nc(N4CC5CC(C4)N5)cnc3n2)c1Cl [Example 200, 4-((2-(3,6-diazabicyclo[3.1.1]heptan-3-yl)pyrido[2,3-b]pyrazin-6-yl)thio)-3-chloropyridin-2-amine] | 48 | 122 | 
CC(C)(C#N)CNc1nccc(Sc2ccc3nc(N4CCC(C)(N)CC4)cnc3n2)c1Cl [Example 134, 3-((4-((2-(4-amino-4-methylpiperidin-1-yl)pyrido[2,3-b]pyrazin-6-yl)thio)-3-chloropyridin-2-yl)amino)-2,2-dimethylpropanenitrile] | 238 | 810 | 
Nc1nccc(Sc2ccc3nc(N4CCC[C@@H](N)CC4)cnc3n2)c1Cl [Example 41, (R)-1-(6-((2-amino-3-chloropyridin-4-yl)thio)pyrido[2,3-b]pyrazin-2-yl)azepan-4-amine] | 56 | 110 | 
C[C@@H]1OCC2(CCN(c3cnc4nc(Sc5ccnc(N6CCC(O)CC6)c5Cl)ccc4n3)CC2)[C@@H]1N [Example 78, 1-(4-((2-((3S,4S)-4-amino-3-methyl-2-oxa-8-azaspiro[4.5]decan-8-yl)pyrido[2,3-b]pyrazin-6-yl)thio)-3-chloropyridin-2-yl)piperidin-4-ol] | 331 | 87 | 
Nc1nccc(Sc2ccc3nc(N4CCC5(CC4)CC(F)(F)C[C@H]5N)cnc3n2)c1Cl (stereo in doubt) [Example 218, 8-(6-((2-amino-3-chloropyridin-4-yl)thio)pyrido[2,3-b]pyrazin-2-yl)-3,3-difluoro-8-azaspiro[4.5]decan-1-amine] | 47 | 67 | 
Nc1nccc(Sc2ccc3nc(N4CCC5(CC4)Cc4ncccc4[C@H]5N)cnc3n2)c1Cl [Example 125, (S)-1′-(6-((2-amino-3-chloropyridin-4-yl)thio)pyrido[2,3-b]pyrazin-2-yl)-5,7-dihydrospiro[cyclopenta[b]pyridine-6,4′-piperidin]-5-amine] |  | 5 | 38
C[C@@H]1OCC2(CCN(c3cnc4nc(Sc5ccnc(N6CCCC6)c5Cl)ccc4n3)CC2)[C@@H]1N [Example 25, (3S,4S)-8-(6-((3-chloro-2-(pyrrolidin-1-yl)pyridin-4-yl)thio)pyrido[2,3-b]pyrazin-2-yl)-3-methyl-2-oxa-8-azaspiro[4.5]decan-4-amine] | 100 | 650 | 

Reference: patent publication US12187721B2, “Protein tyrosine phosphatase inhibitors” (Array BioPharma Inc., priority 2018, dated 2025)
